Measured values: PubChem BioAssay (NCI)
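Where inhibition never reached the appropriate level, the endpoint shown equals the highest concentration tested. Otherwise, values were interpolated linearly from a five-concentration, 48-hour dose response in 96-well plates. At the TGI there is no net growth.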

How the values were obtained:
Experiment in all cases: growth of human tumour cells (NCI), 48 h
[1] = test system: HOP-92 NSCLC
[2] = test system: NCI-H23 lung
[3] = test system: SNB-75 CNS
[4] = test system: NCI-H226 lung
[5] = test system: HCT-116 colon
[6] = test system: MCF7 breast
[7] = test system: MALME-3M melanoma
[8] = test system: CCRF-CEM leukemia
[9] = test system: UACC-62 melanoma
[10] = test system: SW-620 colon
[11] = test system: SN12C renal
[12] = test system: OVCAR-8 ovarian
[13] = test system: SF-268 CNS
[14] = test system: HCC-2998 colon
[15] = test system: M14 melanoma
[16] = test system: OVCAR-4 ovarian
[17] = test system: RXF-631 renal
[18] = test system: SK-MEL-28 melanoma
[19] = test system: HOP-62 NSCLC
[20] = test system: HT29 colon
[21] = test system: NCI/ADR-RES ovarian
[22] = test system: LOX IMVI melanoma
[23] = test system: U251 CNS
[24] = test system: MDA-MB-435
[25] = test system: BT-549 breast
[26] = test system: SK-MEL-2 melanoma
[27] = test system: HL-60(TB) leukemia
[28] = test system: SF-539 CNS
[29] = test system: TK-10 renal
[30] = test system: UO-31 renal
[31] = test system: HS 578T breast
[32] = test system: SNB-78 CNS
[33] = test system: KM12 colon
[34] = test system: K-562 leukemia
[35] = test system: OVCAR-5 ovarian
[36] = test system: COLO 205 colon
[37] = test system: OVCAR-3 ovarian
[38] = test system: UACC-257 melanoma
[39] = test system: 786-0 renal
[40] = test system: A498 renal
[41] = test system: RXF 393 renal
[42] = test system: EKVX NSCLC
[43] = test system: PC-3 prostate
[44] = test system: SK-MEL-5 melanoma
[45] = test system: RPMI-8226 leukemia
[46] = test system: A549 NSCLC
[47] = test system: IGROV1 ovarian
[48] = test system: DMS 114 small cell lung
[49] = test system: T-47D breast
[50] = test system: ACHN renal
[51] = test system: CAKI-1 renal
[52] = test system: SNB-19 CNS
[53] = test system: SR leukemia
[54] = test system: KM20L2 colon
[55] = test system: LXFL 529 NSCLC
[56] = test system: MOLT-4 leukemia
[57] = test system: NCI-H522 lung
[58] = test system: XF 498 CNS
[59] = test system: SF-295 CNS
[60] = test system: DU-145 prostate
[61] = test system: DLD-1 colon
[62] = test system: DMS 273 small cell lung
[63] = test system: NCI-H460 lung
[64] = test system: MDA-N
[65] = test system: MDA-MB-231 breast
[66] = test system: SK-OV-3 ovarian
[67] = test system: M19-MEL melanoma
[68] = test system: HCT-15 colon

Compound: O=C1C=CC(=O)c2c(O)c(CO)c(CO)c(O)c21
- TGI [1]: 944 nM
- TGI [2]: 1300 nM
- TGI [3]: 1640 nM
- TGI [4]: 5030 nM
- TGI [5]: 662 nM
- TGI [6]: 337 nM
- TGI [7]: 467 nM
- TGI [8]: 195 nM
- TGI [9]: 1880 nM
- TGI [10]: 288 nM
- TGI [11]: 774 nM
- TGI [12]: 2040 nM
- TGI [13]: 3930 nM
- TGI [14]: 4780 nM
- TGI [15]: 411 nM
- TGI [16]: 581 nM
- TGI [17]: 2550 nM
- TGI [18]: 960 nM
- TGI [19]: 2400 nM
- TGI [20]: 741 nM
- TGI [21]: 8200 nM
- TGI [22]: 674 nM
- TGI [23]: 5350 nM
- TGI [24]: 1660 nM
- TGI [25]: 593 nM
- TGI [26]: 2580 nM
- TGI [27]: 405 nM
- TGI [28]: 1710 nM
- TGI [29]: 842 nM
- TGI [30]: 2200 nM
- TGI [31]: 4710 nM
- TGI [32]: 3520 nM
- TGI [33]: 3190 nM
- TGI [34]: 13400 nM
- TGI [35]: 3540 nM
- TGI [36]: 171 nM
- TGI [37]: 1710 nM
- TGI [38]: 883 nM
- TGI [39]: 723 nM
- TGI [40]: 3640 nM
- TGI [41]: 939 nM
- TGI [42]: 5030 nM
- TGI [43]: 4370 nM
- TGI [44]: 1120 nM
- TGI [45]: 814 nM
- TGI [46]: 5580 nM
- TGI [47]: 4140 nM
- TGI [48]: 878 nM
- TGI [49]: 1520 nM
- TGI [50]: 1050 nM
- TGI [51]: 875 nM
- TGI [52]: 6130 nM
- TGI [53]: 481 nM
- TGI [54]: 2250 nM
- TGI [55]: 351 nM
- TGI [56]: 188 nM
- TGI [57]: 239 nM
- TGI [58]: 665 nM
- TGI [59]: 3190 nM
- TGI [60]: 3270 nM
- TGI [61]: 202 nM
- TGI [62]: 1420 nM
- TGI [63]: 2790 nM
- TGI [64]: 736 nM
- TGI [65]: 2740 nM
- TGI [66]: 18000 nM
- TGI [67]: 216 nM
- TGI [68]: 490 nM

Compound: Cc1nc(-c2nc(C)c(C(=O)/C=C/c3ccc(N(C)C)cc3)s2)sc1C(=O)/C=C/c1ccc(N(C)C)cc1
- TGI [2]: > 100000 nM
- TGI [4]: > 100000 nM
- TGI [5]: > 100000 nM
- TGI [7]: > 100000 nM
- TGI [8]: > 100000 nM
- TGI [9]: 58000 nM
- TGI [10]: > 100000 nM
- TGI [11]: > 100000 nM
- TGI [12]: > 100000 nM
- TGI [13]: > 100000 nM
- TGI [14]: > 100000 nM
- TGI [15]: > 100000 nM
- TGI [16]: > 100000 nM
- TGI [17]: > 100000 nM
- TGI [18]: > 100000 nM
- TGI [19]: > 100000 nM
- TGI [22]: > 100000 nM
- TGI [23]: > 100000 nM
- TGI [26]: > 100000 nM
- TGI [27]: > 100000 nM
- TGI [28]: > 100000 nM
- TGI [29]: > 100000 nM
- TGI [30]: > 100000 nM
- TGI [33]: > 100000 nM
- TGI [34]: > 100000 nM
- TGI [35]: > 100000 nM
- TGI [36]: > 100000 nM
- TGI [37]: > 100000 nM
- TGI [38]: > 100000 nM
- TGI [39]: > 100000 nM
- TGI [41]: > 100000 nM
- TGI [42]: > 100000 nM
- TGI [46]: > 100000 nM
- TGI [47]: > 100000 nM
- TGI [48]: > 100000 nM
- TGI [50]: > 100000 nM
- TGI [51]: > 100000 nM
- TGI [52]: > 100000 nM
- TGI [53]: > 100000 nM
- TGI [54]: > 100000 nM
- TGI [55]: > 100000 nM
- TGI [56]: > 100000 nM
- TGI [57]: 89200 nM
- TGI [58]: 44600 nM
- TGI [59]: > 100000 nM
- TGI [61]: > 100000 nM
- TGI [62]: > 100000 nM
- TGI [63]: > 100000 nM
- TGI [66]: > 100000 nM
- TGI [67]: > 100000 nM
- TGI [68]: > 100000 nM
